{
  "source": "the supplement of paper PMC10307832",
  "assay_in_all_cases": "relative viability (nuclei count vs DMSO), 5 days (fraction); higher = more cells survive",
  "key": {"[1]": {"tested_on": "NCI-H1734", "in_short": "(§1)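 Lung cancer cell lines were pin-tool dosed in 1536-well plates on the day after seeding, with either a lone drug or a fixed anchor-drug dose plus five library-drug doses (not always all listed) in √10 steps. Nuclei were counted on 4× images after 5 days. Relative viability is the ratio of treated-well to vehicle-well nuclei counts, with each value a median of duplicate plates.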"}, "[2]": {"tested_on": "LC-2-ad", "in_short": "as §1"}, "[3]": {"tested_on": "HCC-15", "in_short": "as §1"}, "[4]": {"tested_on": "NCI-H2342", "in_short": "as §1"}, "[5]": {"tested_on": "PC-3 [JPC-3]", "in_short": "as §1"}, "[6]": {"tested_on": "HCC-78", "in_short": "as §1"}, "[7]": {"tested_on": "LXF-289", "in_short": "as §1"}, "[8]": {"tested_on": "NCI-H1755", "in_short": "as §1"}, "[9]": {"tested_on": "NCI-H1975", "in_short": "as §1"}, "[10]": {"tested_on": "NCI-H2126", "in_short": "as §1"}, "[11]": {"tested_on": "NCI-H1792", "in_short": "as §1"}, "[12]": {"tested_on": "NCI-H647", "in_short": "as §1"}, "[13]": {"tested_on": "RERF-LC-KJ", "in_short": "as §1"}, "[14]": {"tested_on": "NCI-H358", "in_short": "as §1"}, "[15]": {"tested_on": "A-427", "in_short": "as §1"}, "[16]": {"tested_on": "NCI-H1915", "in_short": "as §1"}, "[17]": {"tested_on": "HOP-62", "in_short": "as §1"}, "[18]": {"tested_on": "NCI-H2347", "in_short": "as §1"}, "[19]": {"tested_on": "NCI-H522", "in_short": "as §1"}},
  "data": [
    {"compound": "CC(=O)O[C@@]12CO[C@@H]1C[C@H](O)[C@@]1(C)C(=O)[C@H](O)C3=C(C)[C@@H](OC(=O)[C@H](O)[C@@H](NC(=O)OC(C)(C)C)c4ccccc4)C[C@@](O)([C@@H](OC(=O)c4ccccc4)[C@H]21)C3(C)C", "note": "[Docetaxel] + NC(=O)Nc1cc(-c2cccc(F)c2)sc1C(=O)N[C@H]1CCCNC1 [AZD7762] (partner 0.2 µM)", "values": [
      {"measurement": "relative viability", "setting": "[1]; first compound 0.0002 µM", "result": 0.449},
      {"measurement": "relative viability", "setting": "[1]; first compound 0.000632 µM", "result": 0.384},
      {"measurement": "relative viability", "setting": "[1]; first compound 0.002 µM", "result": 0.199},
      {"measurement": "relative viability", "setting": "[1]; first compound 0.006325 µM", "result": 0.222},
      {"measurement": "relative viability", "setting": "[1]; first compound 0.02 µM", "result": 0.164},
      {"measurement": "relative viability", "setting": "[2]; first compound 0.0002 µM", "result": 0.8},
      {"measurement": "relative viability", "setting": "[2]; first compound 0.000632 µM", "result": 0.353},
      {"measurement": "relative viability", "setting": "[2]; first compound 0.002 µM", "result": 0.224},
      {"measurement": "relative viability", "setting": "[2]; first compound 0.006325 µM", "result": 0.274},
      {"measurement": "relative viability", "setting": "[2]; first compound 0.02 µM", "result": 0.178},
      {"measurement": "relative viability", "setting": "[3]; first compound 0.0002 µM", "result": 1.18},
      {"measurement": "relative viability", "setting": "[3]; first compound 0.000632 µM", "result": 1.02},
      {"measurement": "relative viability", "setting": "[3]; first compound 0.002 µM", "result": 0.433},
      {"measurement": "relative viability", "setting": "[3]; first compound 0.006325 µM", "result": 0.289},
      {"measurement": "relative viability", "setting": "[3]; first compound 0.02 µM", "result": 0.256},
      {"measurement": "relative viability", "setting": "[4]; first compound 0.0002 µM", "result": 0.46},
      {"measurement": "relative viability", "setting": "[4]; first compound 0.000632 µM", "result": 0.56},
      {"measurement": "relative viability", "setting": "[4]; first compound 0.002 µM", "result": 0.405},
      {"measurement": "relative viability", "setting": "[4]; first compound 0.006325 µM", "result": 0.41},
      {"measurement": "relative viability", "setting": "[4]; first compound 0.02 µM", "result": 0.363},
      {"measurement": "relative viability", "setting": "[5]; first compound 0.0002 µM", "result": 0.761},
      {"measurement": "relative viability", "setting": "[5]; first compound 0.000632 µM", "result": 0.69},
      {"measurement": "relative viability", "setting": "[5]; first compound 0.002 µM", "result": 0.441},
      {"measurement": "relative viability", "setting": "[5]; first compound 0.006325 µM", "result": 0.267},
      {"measurement": "relative viability", "setting": "[5]; first compound 0.02 µM", "result": 0.169},
      {"measurement": "relative viability", "setting": "[6]; first compound 0.0002 µM", "result": 0.479},
      {"measurement": "relative viability", "setting": "[6]; first compound 0.000632 µM", "result": 0.545},
      {"measurement": "relative viability", "setting": "[6]; first compound 0.002 µM", "result": 0.318},
      {"measurement": "relative viability", "setting": "[6]; first compound 0.006325 µM", "result": 0.394},
      {"measurement": "relative viability", "setting": "[6]; first compound 0.02 µM", "result": 0.364},
      {"measurement": "relative viability", "setting": "[7]; first compound 0.0002 µM", "result": 1.1},
      {"measurement": "relative viability", "setting": "[7]; first compound 0.000632 µM", "result": 0.664},
      {"measurement": "relative viability", "setting": "[7]; first compound 0.002 µM", "result": 0.346},
      {"measurement": "relative viability", "setting": "[7]; first compound 0.006325 µM", "result": 0.129},
      {"measurement": "relative viability", "setting": "[7]; first compound 0.02 µM", "result": 0.0873},
      {"measurement": "relative viability", "setting": "[8]; first compound 0.0002 µM", "result": 0.488},
      {"measurement": "relative viability", "setting": "[8]; first compound 0.000632 µM", "result": 0.396},
      {"measurement": "relative viability", "setting": "[8]; first compound 0.002 µM", "result": 0.324},
      {"measurement": "relative viability", "setting": "[8]; first compound 0.006325 µM", "result": 0.401},
      {"measurement": "relative viability", "setting": "[8]; first compound 0.02 µM", "result": 0.352},
      {"measurement": "relative viability", "setting": "[9]; first compound 0.0002 µM", "result": 0.721},
      {"measurement": "relative viability", "setting": "[9]; first compound 0.000632 µM", "result": 0.601},
      {"measurement": "relative viability", "setting": "[9]; first compound 0.002 µM", "result": 0.389},
      {"measurement": "relative viability", "setting": "[9]; first compound 0.006325 µM", "result": 0.24},
      {"measurement": "relative viability", "setting": "[9]; first compound 0.02 µM", "result": 0.169},
      {"measurement": "relative viability", "setting": "[10]; first compound 0.0002 µM", "result": 1.07},
      {"measurement": "relative viability", "setting": "[10]; first compound 0.000632 µM", "result": 1},
      {"measurement": "relative viability", "setting": "[10]; first compound 0.002 µM", "result": 0.571},
      {"measurement": "relative viability", "setting": "[10]; first compound 0.006325 µM", "result": 0.395},
      {"measurement": "relative viability", "setting": "[11]; first compound 0.0002 µM", "result": 0.666},
      {"measurement": "relative viability", "setting": "[11]; first compound 0.000632 µM", "result": 0.465},
      {"measurement": "relative viability", "setting": "[11]; first compound 0.002 µM", "result": 0.24},
      {"measurement": "relative viability", "setting": "[11]; first compound 0.006325 µM", "result": 0.0705},
      {"measurement": "relative viability", "setting": "[11]; first compound 0.02 µM", "result": 0.0512},
      {"measurement": "relative viability", "setting": "[12]; first compound 0.0002 µM", "result": 0.297},
      {"measurement": "relative viability", "setting": "[12]; first compound 0.000632 µM", "result": 0.217},
      {"measurement": "relative viability", "setting": "[12]; first compound 0.002 µM", "result": 0.0746},
      {"measurement": "relative viability", "setting": "[12]; first compound 0.006325 µM", "result": 0.0816},
      {"measurement": "relative viability", "setting": "[12]; first compound 0.02 µM", "result": 0.0266},
      {"measurement": "relative viability", "setting": "[13]; first compound 0.0002 µM", "result": 0.5},
      {"measurement": "relative viability", "setting": "[13]; first compound 0.000632 µM", "result": 1.01},
      {"measurement": "relative viability", "setting": "[13]; first compound 0.002 µM", "result": 0.363},
      {"measurement": "relative viability", "setting": "[13]; first compound 0.006325 µM", "result": 0.196},
      {"measurement": "relative viability", "setting": "[13]; first compound 0.02 µM", "result": 0.128},
      {"measurement": "relative viability", "setting": "[14]; first compound 0.0002 µM", "result": 0.429},
      {"measurement": "relative viability", "setting": "[14]; first compound 0.000632 µM", "result": 0.328},
      {"measurement": "relative viability", "setting": "[14]; first compound 0.006325 µM", "result": 0.24},
      {"measurement": "relative viability", "setting": "[14]; first compound 0.02 µM", "result": 0.159},
      {"measurement": "relative viability", "setting": "[15]; first compound 0.0002 µM", "result": 0.729},
      {"measurement": "relative viability", "setting": "[15]; first compound 0.000632 µM", "result": 0.768},
      {"measurement": "relative viability", "setting": "[15]; first compound 0.002 µM", "result": 0.461},
      {"measurement": "relative viability", "setting": "[15]; first compound 0.006325 µM", "result": 0.266},
      {"measurement": "relative viability", "setting": "[15]; first compound 0.02 µM", "result": 0.222},
      {"measurement": "relative viability", "setting": "[16]; first compound 0.0002 µM", "result": 0.638},
      {"measurement": "relative viability", "setting": "[16]; first compound 0.000632 µM", "result": 0.703},
      {"measurement": "relative viability", "setting": "[16]; first compound 0.002 µM", "result": 0.527},
      {"measurement": "relative viability", "setting": "[16]; first compound 0.006325 µM", "result": 0.182},
      {"measurement": "relative viability", "setting": "[16]; first compound 0.02 µM", "result": 0.107},
      {"measurement": "relative viability", "setting": "[17]; first compound 0.0002 µM", "result": 0.6},
      {"measurement": "relative viability", "setting": "[17]; first compound 0.000632 µM", "result": 0.395},
      {"measurement": "relative viability", "setting": "[17]; first compound 0.02 µM", "result": 0.0943},
      {"measurement": "relative viability", "setting": "[18]; first compound 0.0002 µM", "result": 0.697},
      {"measurement": "relative viability", "setting": "[18]; first compound 0.000632 µM", "result": 0.583},
      {"measurement": "relative viability", "setting": "[18]; first compound 0.002 µM", "result": 0.434},
      {"measurement": "relative viability", "setting": "[18]; first compound 0.006325 µM", "result": 0.395},
      {"measurement": "relative viability", "setting": "[18]; first compound 0.02 µM", "result": 0.268},
      {"measurement": "relative viability", "setting": "[19]; first compound 0.0002 µM", "result": 0.927},
      {"measurement": "relative viability", "setting": "[19]; first compound 0.000632 µM", "result": 1.08},
      {"measurement": "relative viability", "setting": "[19]; first compound 0.002 µM", "result": 0.622},
      {"measurement": "relative viability", "setting": "[19]; first compound 0.006325 µM", "result": 0.484},
      {"measurement": "relative viability", "setting": "[19]; first compound 0.02 µM", "result": 0.373}
    ]}
  ]
}
